Data from PMC5834492, “Antimycobacterial drug discovery using Mycobacteria-infected amoebae identifies anti-infectives and new molecular targets” (Scientific Reports, 2018).

Legend:
[1] = tested on: M. marinum luxCDABE; type: cell-based, Mycobacterium marinum; details: 10 µM
[2] = tested on: M. marinum GFP; type: cell-based, Mycobacterium marinum; details: 10 µM; antibiotic assay
[3] = tested on: M. marinum in A. castellanii; type: cell-based, Mycobacterium marinum; details: 10 µM
[4] = tested on: M. marinum in BV2 microglial cells; type: cell-based, Mycobacterium marinum; details: for BV2 / M. marinum normalised growth, control=1.00, mean: 10 µM
[5] = tested on: D. discoideum GFP-ABD; details: 10 µM
[6] = tested on: Mtb H37Rv in THP-1; set-up: method as in Sorrentino et al, 2015; details: ref Sorrentino et al, 2015, cited from earlier work; for Intracelullar MIC90 in THP-1: THP1 / Mtb H37Rv infection assay; for Extracellular MIC90/ Inracellular MIC90: ratio
[7] = tested on: Mtb H37Rv; set-up: method as in Sorrentino et al, 2015; details: ref Sorrentino et al, 2015; cited from earlier work

Structure (SMILES) | M. marinum luxCDABE normalised growth, control=1.00, mean [1] | M. marinum GFP normalised growth, control=1.00, mean [2] | A. castellanii / M. marinum normalised growth, control=1.00, mean [3] | IC50 [4] | BV2 / M. marinum normalised growth, control=1.00, mean [4] | D. discoideum GFP-ABD normalised growth, control=1.00, mean [5] | Intracelullar MIC90 in THP-1 [6] | Extracellular MIC90/ Inracellular MIC90 [6] | Extracellular MIC90 [7]
Cc1cccc(Cn2ccc(NC(=O)c3ccc4c(c3)OCO4)n2)c1 [GSK798463A] | 0.00 | 0.0323 | 0.57 | 5.01 µM | 0.80 | 0.66 | 5.55 µM | 0.67 | 3.7 µM
c1csc(Cc2nn3c(-c4[nH]nc5c4CCC5)nnc3s2)c1 [GSK810037A] | 0.11 | 0.73 | 1.03 | 4.8 µM | 0.81 | 0.76 | 1.85 µM | 1.3 | 2.4 µM
O=C(c1cc2ccccc2o1)N1CCN(Cc2ccc3c(c2)OCO3)CC1 [GSK861337A] | 0.00 | 0.10 | 0.70 | 9.31 µM | 0.77 | 0.31 | 5.55 µM | 0.49 | 2.7 µM
COc1ccc(CCNc2cc(-c3ccccc3)nc3ncnn23)cc1 [GSK888636A] | 0.00 | 0.44 | 1.02 | 5.42 µM | 0.72 | 1.15 | 1.85 µM | 0.32 | 0.6 µM
Cc1nc2ccccn2c1C(=O)NCc1cccs1 [GSK892651A] | 0.00 | 0.12 | 0.65 | 4.41 µM | 0.60 | 0.83 | 5.55 µM | 1.62 | 9 µM
CSc1ccccc1C(=O)Nc1nc(-c2ccccn2)cs1 [GSK921190A] | 0.10 | 0.45 | 1.20 | 4.08 µM | 0.94 | 0.94 | 16.65 µM | 0.1 | 1.7 µM
Cc1nc2ccccn2c1C(=O)NCc1ccccc1 [GSK957094A] | 0.11 | 0.0746 | 0.54 | 7.59 µM | 0.52 | 0.93 | 5.55 µM | 0.36 | 2 µM
COc1ccccc1OCCCCn1c(C2CC2)nc2ccccc21 [GSK994258A] | 0.00 | 0.10 | 1.03 | 8.73 µM | 0.59 | 0.31 | 5.55 µM | 0.61 | 3.4 µM
COc1ccc(Nc2ccccc2NC(=O)c2ccc(O)nc2)cc1 [GSK1051703A] | 1.00 | 0.84 | 1.00 | 6.47 µM | 0.65 | 1.00 | 5.55 µM | 1.28 | 7.1 µM
